Common to all, as to assay type: functional, H37Rv
Holding throughout (conditions): time 7-14 day

Experiment [1] concerns Mycobacterium tuberculosis.
Experiment [2] deals with Mycobacterium tuberculosis. This is another data set of the same source.
Experiment [3] deals with Mycobacterium tuberculosis. The source holds these as a separate data set.
The subject of experiment [4] is Mycobacterium tuberculosis. The source holds these as a separate data set.

These results are taken from ChEMBL document CHEMBL4706648, “Antitubercular 2-Pyrazolylpyrimidinones: Structure-Activity Relationship and Mode-of-Action Studies” (J Med Chem, 2021).

Broadly, the MIC is the lowest concentration that inhibits growth of the organism. A low value points to greater potency.

Values after ≈ are worked out from the molar mass of the structure shown.

With `Cc1cc(C)n(-c2nc(C(F)(F)F)cc(=O)[nH]2)n1`, the results for the minimum inhibitory concentration (MIC) in experiment [1] and in experiment [2] were 170 µM (≈ 43.9 µg/mL) and 17 µM (≈ 4.39 µg/mL), respectively.
For `COCCNc1cc(C)nn1-c1nc(C(F)(F)F)cc(=O)[nH]1`, in that order: 39 µM (≈ 12.4 µg/mL) and 1.9 µM (≈ 0.603 µg/mL).
For `Cc1cc(C)n(-c2nc(O)cc(-c3ccccc3)n2)n1`, the MIC in experiment [1] was 18 µM (≈ 4.79 µg/mL); in experiment [2] it was 1.9 µM (≈ 0.506 µg/mL); in experiment [3] it was 16 µM (≈ 4.26 µg/mL); in experiment [4] it was 40 µM (≈ 10.7 µg/mL).
In experiment [2], `CC(=O)Nc1cc(C)nn1-c1nc(-c2ccccc2)cc(=O)[nH]1` displayed an MIC of 24 µM (≈ 7.42 µg/mL).
As to `CCNc1cc(C)nn1-c1nc(-c2cccnc2)cc(=O)[nH]1`, the minimum inhibitory concentration (MIC) in experiment [1] turned out to be 41 µM (≈ 12.1 µg/mL); in experiment [2] it was 5.5 µM (≈ 1.63 µg/mL).
Regarding `Cc1ccc(Nc2cc(C)nn2-c2nc(C)cc(O)n2)cc1`, the MIC amounted to 55 µM (≈ 16.2 µg/mL) in experiment [1], 5.4 µM (≈ 1.59 µg/mL) in experiment [2], 45 µM (≈ 13.3 µg/mL) in experiment [3] and 110 µM (≈ 32.5 µg/mL) in experiment [4].
`Cc1cc(Nc2ccc(F)cc2)n(-c2nc(C(F)(F)F)cc(=O)[nH]2)n1`: the MIC in experiment [2] came out at 1 µM (≈ 0.353 µg/mL).
